Data set [1] in a line: Enzymatic stability in crude rat brain membranes. The settings on record: enzymatic degradation in crude rat brain membranes; read-out: 1/2 life time. It counts as in vitro ADME. Here is the method: The resistance of these analogs to enzymatic degradation was tested in crude rat brain membranes which contain at the same time aminopeptidasic, thiolproteasic and encephalinasic activity [Matsas et al. Febs. Lett. 175, 124 (1984); McDermott et al. Neurochem. Int. 5, 641 (1983)]. These compounds were tested according to the protocol previously described by Durieux et al. Neuropeptides 7, 1, (1986).

Data set [2] deals with guinea pig pancreatic acini. The experiment in a line: Pancreatic amylase liberation test. The settings on record: acini incubated 30 minutes at 37° C.; mean of three experiments in triplicate; read-out: Amylase secretion from guinea pig pancreatic acini, Agonist activity EC50. It counts as cell-based. The protocol: Amylase secretion is measured after incubation of pancreatic acini for 30 minutes at 37° C. in the presence of the products under study, according to the experimental protocol described by Peikin et al., Am. J. Physiol., 235 (6), E 743-E 749, (1978). Amylase activity is determined using Phadebas reagent (Pharmacia), according to the method described by Ceska et al., Experientia, 25, 555 (1969). The values indicated in this table represent the mean of three separate experiments, each carried out in triplicate.

The next data set deals with guinea pig ileum. The experiment in a line: Contraction-producing activity on guinea pig ileum. The settings on record: isolated ileum strips, Tyrode's solution, 37° C.; mean ± s.e.m. of three experiments; read-out: Contraction-producing activity on guinea pig ileum, Agonist activity EC50. The protocol: This test is carried out according to the method described by Hutchinson et al., Eur. J. Pharmacol., 69, 87 (1981). Strips from the terminal portion of the guinea pig ileum are rapidly sampled and fixed in the tank of an isometric gauge containing 25 cm^3 of Tyrode's solution. The solution is maintained at 37° C. while passing through it, bubble by bubble, a gas composed of 95% oxygen and 5% CO2. The compounds under study are tested in the conditions described by Ruiz-Gayo et al., Peptides, 6, 415, (1985).
The values indicated in this table represent the mean (± s.e.m.) of three separate experiments.

*1 amine or outer side, *2 acyl side, *3 side chain or, on linkers, in order; H or OH if unused. Where a SMILES comes first, the peptide text is derived from it. [ ]: non-standard residue; d: D form. The star is where a group is joined. X1 = CCCC[C@@H](NC(=O)CC(=O)*)NC(=O)[C@H](Cc1ccc(CS(=O)(=O)O)cc1)NC(C)=O; Phe(4-CH2SO3H) = N[C@@H](Cc1ccc(CS(=O)(=O)O)cc1)C(=O)O; X2 = O=C([C@@H](Cc1ccc(CS(=O)(=O)O)cc1)N[*:1])[*:2]; sY = N[C@@H](Cc1ccc(OS(=O)(=O)O)cc1)C(=O)O; NMeNle = CCCC[C@H](NC)C(=O)O; Nle = CCCC[C@H](N)C(=O)O; Boc = CC(C)(C)OC(=O)*

For `CSCC[C@H](NC(=O)[C@H](Cc1ccc(OS(=O)(=O)O)cc1)NC(=O)[C@@H](N)CC(=O)O)C(=O)NCC(=O)N[C@@H](Cc1c[nH]c2ccccc12)C(=O)N[C@@H](CCSC)C(=O)N[C@@H](CC(=O)O)C(=O)N[C@@H](Cc1ccccc1)C(N)=O` [CCK8, Asp-Tyr(SO3 H)-Met-Gly-Trp-Met-Asp-Phe-NH2, reference compound], the half-life in data set [1] was 0.75 h.

Take `CCCC[C@H](NC(=O)[C@H](Cc1ccc(CS(=O)(=O)O)cc1)NC(C)=O)C(=O)NCC(=O)N[C@@H](Cc1c[nH]c2ccccc12)C(=O)N[C@@H](CCCC)C(=O)N[C@@H](CC(=O)O)C(=O)N[C@@H](Cc1ccccc1)C(N)=O` [Example 13, Ac-L-Phe(p-CH2 SO3 Na)-NLe-Gly-Trp-NLe-Asp-PheNH2] (Ac-[Phe(4-CH2SO3H)][Nle]GW[Nle]DF-NH2): the concentration giving a half-maximal response (EC50) in data set [2] is 0.33 nM; in the data set with guinea pig ileum, 3.8 nM.

For `CCCC[C@H](NC(=O)[C@H](Cc1c[nH]c2ccccc12)NC(=O)CNC(=O)[C@H](CCCC)NC(=O)[C@@H](Cc1ccc(CS(=O)(=O)O)cc1)NC(C)=O)C(=O)N[C@@H](CC(=O)O)C(=O)N[C@@H](Cc1ccccc1)C(N)=O` [Example 14, Ac-D-Phe(p-CH2 SO3 Na)-NLe-Gly-Trp-NLe-Asp-PheNH2] (Ac-[X2][Nle]GW[Nle]DF-NH2), the EC50 in data set [2] turned out to be 1.6 nM; in the data set with guinea pig ileum it was 18 nM.

For the compound `CCCC[C@@H](NC(=O)CC(=O)N[C@@H](Cc1c[nH]c2ccccc12)C(=O)N(C)[C@@H](CCCC)C(=O)N[C@@H](CC(=O)O)C(=O)N[C@@H](Cc1ccccc1)C(N)=O)NC(=O)[C@H](Cc1ccc(OS(=O)(=O)O)cc1)NC(=O)OC(C)(C)C` [Example 15, Boc-Tyr(SO3 Na)-gNle-mGly-Trp-(N-Me)Nle-Asp(Na)-Phe-NH2], the EC50 in data set [2] was 0.35 nM; in the data set with guinea pig ileum, 1 nM. In addition, the half-life in data set [1] was over 3 h.

Turning to `CCCC[C@H](NC(=O)[C@H](Cc1ccc(OS(=O)(=O)O)cc1)NC(=O)OC(C)(C)C)C(=O)NCC(=O)N[C@@H](Cc1c[nH]c2ccccc12)C(=O)N(C)[C@@H](CCCC)C(=O)N[C@@H](CC(=O)O)C(=O)N[C@@H](Cc1ccccc1)C(N)=O` [Example 16, Boc-Tyr(SO3 Na)-Nle-Gly-Trp-(N-Me)Nle-Asp(Na)-Phe-NH2] (Boc-[sY][Nle]GW[NMeNle]DF-NH2), the EC50 was 377 nM in data set [2] and over 1000 nM in the data set with guinea pig ileum. The half-life in data set [1] is over 4.17 h.

For the compound `CCCC[C@@H](NC(=O)CC(=O)N[C@@H](Cc1c[nH]c2ccccc12)C(=O)N(C)[C@@H](CCCC)C(=O)N[C@@H](CC(=O)O)C(=O)N[C@@H](Cc1ccccc1)C(N)=O)NC(=O)[C@H](Cc1ccc(CS(=O)(=O)O)cc1)NC(C)=O` [Example 18, Ac-L-Phe(p-CH2 SO3 Na)-gNle-mGly-Trp-(N-Me)Nle-Asp-Phe-NH2] (X1-W[NMeNle]DF-NH2), the EC50 in data set [2] is 642 nM; with guinea pig ileum it was over 1000 nM. Also, the half-life in data set [1] was over 4.17 h.

By EC50 is commonly meant the concentration at which the effect is half-maximal.

The values are drawn from patent US5190921A, “Amino acids and peptides having a modified tyrosine residue, their preparation and their application as medicaments” (Institut National de la Sante et de la Recherche Medicale …, priority 1988, dated 1993).
